Measurements: patent publication US4542141A, “Compound having vasodilating, antiaggregating and hypocholesterolemic activities, process for the preparation thereof and pharmaceutical compositions therefrom” (Edmond Pharma s.r.l., priority 1982, dated 1985)

What was measured:
[1] = Hypocholesterolemic action in rats fed with Nath's diet; format: in vivo; settings: 200 mg/kg per os, 40 days
Description: 24 Hours after the last administration, the survived animals have been sacrificed and the dosage of total serum cholesterol, serum triglycerides, serum phospholipids and serum free fatty acids has been performed according to the methods described by Abell et al. (J. Biol. Chem., 195, 375, 1952), VAN HANDALL et al. (J. Lab. Clin. Med., 50, 152, 1957), MORRISON (Anal. Biochem., 7, 218, 1964), DOLE AND MEINERTZ (J. Biol. Chem., 235, 2595, 1960).
The livers were withdrawn and weighed, homogenized and extracted in soxhlet. The extracted lipids, evaporated, have been weighed and expresses as % of fresh organ.

[2] = Pharmacokinetics in the rat by the oral route; settings: equimolar doses, compared with VQG 582
[3] = rat, in vivo
[4] = tested on: cutaneous temperature of the paw; experiment: Vasodilating action in the mouse (cutaneous temperature of the paw); format: in vivo, Swiss male whitish mice; settings: for mean variation of the cutaneous temperature in the 3h following the treatment: in °C (unit assumed)
Description: Swiss male whitish mice weighing about 20 g have been used. The cutaneous temperature of the paw has been measured, in conditioned room by means of a suitable thermometric equipment, (a) for three times, at 30 minutes intervals, before treatment (basal temperature), and (b) every 30 minutes in the three hours following the drugs treatment.

[5] = tested on: platelet aggregation induced by adrenaline; experiment: "Ex vivo" platelet antiaggregating action; format: in vivo, rabbits; settings: rabbit PRP, 35 mcg/ml adrenaline
Description: By this test, the effect of VQG 582, acetylsalicylic acid or sulfinpyrazone pretreatment of rabbits on the platelet aggregation induced on the PRP of these animals by 35 mcg/ml adrenaline, has been valued.

[6] = Acute toxicity in the rat (LD50, Probits method); settings: in vivo
Description: (§1) The study has been performed using whitish Swiss mice weighing about 20 g and Wistar rats, in the phase of weight increase, weighing about 150 g, of both sexes. The product has been administered to fasted animals (2 hours for mice and 18 hours for rats) by gastric tube (oral route) or intraperitoneal injection. Sulfipyrazone has been used as reference drug.
(§2) For the statistic calculation of LD50 and of the respective confidence limits for p=0.05, the Probits method was followed (Finney D. J.--Probit analysis-Cambridge Univ. Press, London and New York, 1952), taking into account the death rates in the 8 days following the treatments.

[7] = Acute toxicity in the mouse (LD50, Probits method); settings: in vivo
Description: as §1, §2

[8] = tested on: thrombocytopenia induced by Arthus reaction; experiment: Inhibition of the thrombocytopenia induced by Arthus reaction in the guinea-pig; format: in vivo, guinea pigs; settings: guinea pig after antigenic reaction, 100 mg/kg os; for % inhibition: thrombocytopenia
Description: The method described by White and Butler (Thromb. Diath. Haemorr., 34, 533, 1975) has been used.

[9] = ip, intraperitoneal route, female
[10] = ip, intraperitoneal route, male

Structure (SMILES) | % dead animals [1] [%] | serum cholesterol [1] [mg/100 ml] | serum free fatty acids [1] [mg/100 ml] | serum phospholipids [1] [mg/100 ml] | LD50 at 192 h [6, 9] [mg/kg] | LD50 at 192 h [6, 10] [mg/kg] | LD50 at 192 h ([6]; po, female) [mg/kg] | LD50 at 192 h ([6]; po, male) [mg/kg] | LD50 at 192 h [7, 9] [mg/kg] | LD50 at 192 h [7, 10] [mg/kg] | LD50 at 192 h ([7]; po, female) [mg/kg] | LD50 at 192 h ([7]; po, male) [mg/kg] | N. platelets ± S.E. [8] | % inhibition [8] [%] | inhibition % ([5]; 40 mg/kg os) [%] | inhibition % ([5]; 80 mg/kg os) [%] | inhibition % ([5]; 120 mg/kg os) [%] | mean variation of the cutaneous temperature in the 3h following the treatment ([4]; 100 mg/kg os) | further results
O=C(O)c1cccnc1 [nicotinic acid] | 10 | 324.3 | 0.39 | 161.7 | – | – | – | – | – | – | – | – | – | – | – | – | – | – | absorption [2]: faster absorption; AUC ([3]; po): AUC superimposable to VQG 582; max. effect time ([4]; 50 mg/kg os): 30 min; mean variation of the cutaneous temperature in the 3h following the treatment ([4]; 50 mg/kg os): +0.75
CC(=O)Oc1ccccc1C(=O)O [ASA, acetylsalicylic acid] | – | – | – | – | – | – | – | – | – | – | – | – | – | – | – | – | – | – | inhibition % ([5]; 50 mg/kg os): 30%; inhibition % ([5]; 75 mg/kg os): 70%; inhibition % ([5]; 100 mg/kg os): 100%
O=C1C(CC[S+]([O-])c2ccccc2)C(=O)N(c2ccccc2)N1c1ccccc1 (centres unmarked) [sulfinpyrazone, 1,2-diphenyl-4-[2-(phenylsulfinyl)ethyl]-pyrazoline-3,5-dione] | – | – | – | – | 157 | 149 | 390 | 348 | 159 | 163 | 335 | 368 | 204.3 10^3 /mm^3 | 63.1 | 5 | 30 | 70 | +0.05 | –
O=C(OCC1(CC[S+]([O-])c2ccccc2)C(=O)N(c2ccccc2)N(c2ccccc2)C1=O)c1cccnc1 (centres unmarked) [VQG 582, 1,2-diphenyl-4-[2-(phenylsulfinyl)-ethyl]-4-(nicotinoyloxymethyl)-pyrazolidine-3,5-dione] | 10 | 294.1 | 0.31 | 157.1 | 2320 | 2690 | > 4000 | > 4000 | 3250 | 3130 | > 4000 | > 4000 | 218.5 10^3 /mm^3 | 70.2 | 15 | 70 | 85 | +0.60 | serum triglycerides [1]: 113.8 mg/100 ml; liver lipids % ([1]; % of fresh organ): 16.0%; pharmacological action after oral administration [3]: pharmacological action clearly delayed; blood concentrations expressed as sulfinpyrazone ([3]; po): prolongation of the blood concentrations expressed as sulfinpyrazone; metabolism ([3]; po): metabolized via an intermediate step, respectively to nicotinic acid and sulfinpyrazone; presence of unchanged compound in the plasma ([3]; po): found unchanged in the plasma 30 minutes to 1 hour after the treatment; max. effect time ([4]; 100 mg/kg os): 60 min
